In ChEMBL document CHEMBL1152560, “Substituted 2-arylbenzothiazoles as kinase inhibitors: hit-to-lead optimization” (Bioorg Med Chem, 2009):

How the values were obtained:
[1] = biological target: Casein kinase I isoform gamma-3 (Homo sapiens) (UniProt Q9Y6M4); assay: Residual activity of CK1gamma3 at 10 uM by microplate scintillation counting
[2] = biological target: RAC-alpha serine/threonine-protein kinase (Homo sapiens) (UniProt P31749); assay: Residual activity of AKT1 at 10 uM by microplate scintillation counting
[3] = biological target: Tyrosine-protein kinase ABL1 (Homo sapiens) (UniProt P00519); assay: Residual activity of wild type ABL1 at 10 uM by microplate scintillation counting
[4] = biological target: Epidermal growth factor receptor (Homo sapiens, UniProt P00533); assay: Residual activity of wild type EGF-R at 0.1 uM by microplate scintillation counting
[5] = biological target: T1, Serine/threonine-protein kinase PLK4 (Homo sapiens) (UniProt O00444); assay: Residual activity of SAK at 1 uM by microplate scintillation counting
T1 sequence (whole entry): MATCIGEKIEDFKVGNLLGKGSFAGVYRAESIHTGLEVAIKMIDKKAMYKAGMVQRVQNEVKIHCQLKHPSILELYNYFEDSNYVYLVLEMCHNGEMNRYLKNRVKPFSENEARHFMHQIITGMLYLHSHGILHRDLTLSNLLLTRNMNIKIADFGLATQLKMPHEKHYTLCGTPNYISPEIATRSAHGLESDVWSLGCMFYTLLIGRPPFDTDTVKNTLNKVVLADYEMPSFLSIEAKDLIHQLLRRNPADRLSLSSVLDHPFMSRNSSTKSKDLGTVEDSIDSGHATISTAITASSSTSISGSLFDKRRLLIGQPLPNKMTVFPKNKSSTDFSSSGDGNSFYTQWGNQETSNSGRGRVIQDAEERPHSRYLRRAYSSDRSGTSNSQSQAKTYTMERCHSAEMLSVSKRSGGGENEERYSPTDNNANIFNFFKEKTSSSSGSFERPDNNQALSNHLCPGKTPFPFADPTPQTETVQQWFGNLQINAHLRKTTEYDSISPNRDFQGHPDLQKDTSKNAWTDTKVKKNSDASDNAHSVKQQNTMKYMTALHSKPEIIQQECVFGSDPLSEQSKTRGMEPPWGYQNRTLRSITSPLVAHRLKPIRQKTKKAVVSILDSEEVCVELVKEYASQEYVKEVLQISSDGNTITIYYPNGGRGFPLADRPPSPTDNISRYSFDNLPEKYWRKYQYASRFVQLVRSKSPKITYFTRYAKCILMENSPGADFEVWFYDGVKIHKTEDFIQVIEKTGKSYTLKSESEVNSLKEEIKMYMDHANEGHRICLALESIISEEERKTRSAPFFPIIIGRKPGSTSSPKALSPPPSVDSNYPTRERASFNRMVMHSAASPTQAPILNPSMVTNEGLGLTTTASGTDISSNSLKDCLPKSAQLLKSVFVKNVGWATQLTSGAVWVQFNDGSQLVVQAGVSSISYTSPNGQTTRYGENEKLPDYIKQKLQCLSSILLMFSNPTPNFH

[6] = biological target: Tyrosine-protein kinase JAK2 (Homo sapiens) (UniProt O60674); assay: Residual activity of JAK2 at 1 uM by microplate scintillation counting
[7] = biological target: T2, Serine/threonine-protein kinase Chk1 (Homo sapiens) (UniProt O14757); assay: Residual activity of CHK1 at 0.1 uM by microplate scintillation counting
T2 sequence (whole entry): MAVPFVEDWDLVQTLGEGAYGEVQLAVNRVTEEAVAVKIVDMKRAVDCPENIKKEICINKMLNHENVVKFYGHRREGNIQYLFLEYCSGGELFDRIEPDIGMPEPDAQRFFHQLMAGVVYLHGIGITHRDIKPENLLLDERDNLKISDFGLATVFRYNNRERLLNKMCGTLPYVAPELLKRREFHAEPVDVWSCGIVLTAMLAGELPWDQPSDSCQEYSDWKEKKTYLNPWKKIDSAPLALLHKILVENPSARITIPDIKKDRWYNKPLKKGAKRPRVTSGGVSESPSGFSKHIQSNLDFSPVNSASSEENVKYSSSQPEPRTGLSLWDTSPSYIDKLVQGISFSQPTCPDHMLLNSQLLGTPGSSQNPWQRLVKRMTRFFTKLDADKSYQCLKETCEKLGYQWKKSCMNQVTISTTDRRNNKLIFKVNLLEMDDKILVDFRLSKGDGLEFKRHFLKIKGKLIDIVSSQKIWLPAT

[8] = biological target: T3, Ephrin type-A receptor 1 (Homo sapiens) (UniProt P21709); assay: Residual activity of EPHA1 at 0.1 uM by microplate scintillation counting
T3 sequence (whole entry): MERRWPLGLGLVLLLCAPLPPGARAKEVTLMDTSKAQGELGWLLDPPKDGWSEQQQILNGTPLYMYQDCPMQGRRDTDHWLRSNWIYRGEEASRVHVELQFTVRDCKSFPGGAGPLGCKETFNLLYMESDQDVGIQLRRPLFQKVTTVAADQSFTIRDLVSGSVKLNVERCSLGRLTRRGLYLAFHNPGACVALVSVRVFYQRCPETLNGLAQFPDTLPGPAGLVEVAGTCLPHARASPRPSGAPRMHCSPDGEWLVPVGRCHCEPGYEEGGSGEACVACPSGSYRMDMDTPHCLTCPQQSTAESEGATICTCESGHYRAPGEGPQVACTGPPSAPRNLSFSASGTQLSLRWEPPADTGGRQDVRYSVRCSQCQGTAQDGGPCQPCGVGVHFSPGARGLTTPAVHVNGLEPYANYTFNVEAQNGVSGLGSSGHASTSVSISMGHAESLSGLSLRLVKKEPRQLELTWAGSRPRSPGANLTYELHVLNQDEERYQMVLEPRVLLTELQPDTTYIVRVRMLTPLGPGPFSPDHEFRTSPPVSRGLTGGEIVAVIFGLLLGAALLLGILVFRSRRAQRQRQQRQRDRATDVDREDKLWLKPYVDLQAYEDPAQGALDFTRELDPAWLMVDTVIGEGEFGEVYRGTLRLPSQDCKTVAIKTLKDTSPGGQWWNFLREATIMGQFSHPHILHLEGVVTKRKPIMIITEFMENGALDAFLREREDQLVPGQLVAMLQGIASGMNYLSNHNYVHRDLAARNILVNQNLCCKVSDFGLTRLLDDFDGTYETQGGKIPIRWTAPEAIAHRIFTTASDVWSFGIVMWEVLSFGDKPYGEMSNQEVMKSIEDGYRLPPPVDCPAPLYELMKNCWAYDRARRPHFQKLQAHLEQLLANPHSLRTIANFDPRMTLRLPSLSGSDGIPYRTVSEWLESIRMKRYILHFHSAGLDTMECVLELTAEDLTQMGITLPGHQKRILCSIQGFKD

[9] = biological target: MAP kinase-activated protein kinase 3 (Homo sapiens) (UniProt Q16644); assay: Residual activity of MAPKAPK3 at 10 uM by microplate scintillation counting
Sequence of MAP kinase-activated protein kinase 3 (Homo sapiens) (Q16644 whole entry, looked up): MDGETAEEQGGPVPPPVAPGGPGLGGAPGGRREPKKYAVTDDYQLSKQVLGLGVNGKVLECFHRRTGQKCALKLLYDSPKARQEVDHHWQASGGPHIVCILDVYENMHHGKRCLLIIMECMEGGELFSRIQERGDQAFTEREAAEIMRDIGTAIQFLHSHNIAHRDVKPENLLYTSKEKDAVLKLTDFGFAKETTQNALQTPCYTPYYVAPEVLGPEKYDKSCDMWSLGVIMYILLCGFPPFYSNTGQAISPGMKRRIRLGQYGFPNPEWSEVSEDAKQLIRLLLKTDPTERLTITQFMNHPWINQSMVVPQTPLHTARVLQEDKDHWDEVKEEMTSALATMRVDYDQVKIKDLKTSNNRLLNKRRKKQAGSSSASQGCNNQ

Sequence of RAC-alpha serine/threonine-protein kinase (Homo sapiens) (P31749 whole entry): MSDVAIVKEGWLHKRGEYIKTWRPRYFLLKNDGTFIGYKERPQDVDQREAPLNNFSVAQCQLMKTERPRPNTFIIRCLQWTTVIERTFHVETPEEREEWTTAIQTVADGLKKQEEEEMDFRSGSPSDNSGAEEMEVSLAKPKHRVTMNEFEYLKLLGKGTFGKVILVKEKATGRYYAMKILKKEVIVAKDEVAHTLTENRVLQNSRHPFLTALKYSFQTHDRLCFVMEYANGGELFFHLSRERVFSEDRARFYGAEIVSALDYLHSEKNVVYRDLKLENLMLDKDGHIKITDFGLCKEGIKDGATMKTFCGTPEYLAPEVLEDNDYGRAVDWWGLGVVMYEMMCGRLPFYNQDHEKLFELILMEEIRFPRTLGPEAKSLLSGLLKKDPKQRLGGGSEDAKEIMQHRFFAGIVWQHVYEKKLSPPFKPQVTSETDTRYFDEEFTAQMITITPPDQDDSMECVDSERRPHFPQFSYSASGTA
Sequence of Tyrosine-protein kinase ABL1 (Homo sapiens) (P00519 whole entry): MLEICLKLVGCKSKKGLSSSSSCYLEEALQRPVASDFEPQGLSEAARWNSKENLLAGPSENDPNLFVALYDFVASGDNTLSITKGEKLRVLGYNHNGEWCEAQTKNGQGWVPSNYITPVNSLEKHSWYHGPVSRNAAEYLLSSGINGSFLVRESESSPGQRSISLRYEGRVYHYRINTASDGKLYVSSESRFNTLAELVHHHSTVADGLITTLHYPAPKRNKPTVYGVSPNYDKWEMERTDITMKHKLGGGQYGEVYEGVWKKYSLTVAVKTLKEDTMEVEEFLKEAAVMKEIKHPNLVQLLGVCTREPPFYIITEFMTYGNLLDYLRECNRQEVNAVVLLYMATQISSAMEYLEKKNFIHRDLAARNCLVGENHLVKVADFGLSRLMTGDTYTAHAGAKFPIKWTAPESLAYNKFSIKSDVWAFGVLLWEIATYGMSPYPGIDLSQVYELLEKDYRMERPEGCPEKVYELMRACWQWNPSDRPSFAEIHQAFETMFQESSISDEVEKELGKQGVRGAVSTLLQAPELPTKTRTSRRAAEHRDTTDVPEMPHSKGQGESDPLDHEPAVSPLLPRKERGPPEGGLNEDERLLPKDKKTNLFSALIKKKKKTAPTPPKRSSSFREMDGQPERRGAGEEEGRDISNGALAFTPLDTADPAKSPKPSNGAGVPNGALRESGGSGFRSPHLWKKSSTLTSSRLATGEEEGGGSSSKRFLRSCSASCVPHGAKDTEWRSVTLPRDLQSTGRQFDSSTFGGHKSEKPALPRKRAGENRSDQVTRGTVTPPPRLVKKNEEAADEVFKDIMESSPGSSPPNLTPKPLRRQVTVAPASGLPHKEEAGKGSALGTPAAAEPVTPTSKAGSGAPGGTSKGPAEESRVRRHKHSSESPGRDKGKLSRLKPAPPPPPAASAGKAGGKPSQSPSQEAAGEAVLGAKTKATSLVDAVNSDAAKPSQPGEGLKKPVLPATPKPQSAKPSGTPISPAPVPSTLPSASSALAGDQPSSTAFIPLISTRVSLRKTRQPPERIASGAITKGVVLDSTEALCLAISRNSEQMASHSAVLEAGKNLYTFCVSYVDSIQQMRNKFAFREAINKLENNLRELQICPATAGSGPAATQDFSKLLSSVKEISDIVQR
Sequence of Epidermal growth factor receptor (P00533 whole entry): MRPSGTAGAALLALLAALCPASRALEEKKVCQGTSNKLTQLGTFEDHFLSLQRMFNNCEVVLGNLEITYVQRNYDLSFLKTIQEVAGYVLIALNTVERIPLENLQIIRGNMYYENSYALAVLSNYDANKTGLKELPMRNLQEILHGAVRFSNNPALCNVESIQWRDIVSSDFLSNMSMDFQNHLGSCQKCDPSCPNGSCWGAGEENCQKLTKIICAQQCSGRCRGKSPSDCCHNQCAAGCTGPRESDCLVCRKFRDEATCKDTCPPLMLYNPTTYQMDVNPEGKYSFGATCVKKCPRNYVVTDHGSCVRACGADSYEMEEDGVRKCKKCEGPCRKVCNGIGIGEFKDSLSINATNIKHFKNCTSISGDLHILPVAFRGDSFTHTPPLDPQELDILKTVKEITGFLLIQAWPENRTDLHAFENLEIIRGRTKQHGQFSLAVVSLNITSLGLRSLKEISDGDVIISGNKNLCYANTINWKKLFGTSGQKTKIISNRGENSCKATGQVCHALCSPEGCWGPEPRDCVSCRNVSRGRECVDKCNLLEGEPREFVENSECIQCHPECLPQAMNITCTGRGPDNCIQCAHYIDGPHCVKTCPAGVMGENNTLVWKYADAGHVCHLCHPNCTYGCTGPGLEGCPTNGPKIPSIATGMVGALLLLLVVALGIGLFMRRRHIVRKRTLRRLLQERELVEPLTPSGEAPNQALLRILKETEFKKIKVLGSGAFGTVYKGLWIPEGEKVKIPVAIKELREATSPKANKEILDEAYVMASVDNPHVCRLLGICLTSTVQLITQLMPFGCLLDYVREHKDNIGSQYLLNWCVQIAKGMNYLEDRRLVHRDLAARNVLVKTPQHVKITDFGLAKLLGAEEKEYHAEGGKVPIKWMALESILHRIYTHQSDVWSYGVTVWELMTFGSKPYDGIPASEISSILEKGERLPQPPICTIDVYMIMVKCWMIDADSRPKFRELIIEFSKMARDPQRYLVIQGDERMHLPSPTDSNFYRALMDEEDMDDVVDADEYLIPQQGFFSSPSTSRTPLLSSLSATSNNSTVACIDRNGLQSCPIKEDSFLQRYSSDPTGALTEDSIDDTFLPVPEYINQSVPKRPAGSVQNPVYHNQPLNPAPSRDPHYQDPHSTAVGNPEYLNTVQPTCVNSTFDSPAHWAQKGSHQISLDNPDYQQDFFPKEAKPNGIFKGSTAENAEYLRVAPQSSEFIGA
Sequence of Tyrosine-protein kinase JAK2 (Homo sapiens) (O60674 whole entry): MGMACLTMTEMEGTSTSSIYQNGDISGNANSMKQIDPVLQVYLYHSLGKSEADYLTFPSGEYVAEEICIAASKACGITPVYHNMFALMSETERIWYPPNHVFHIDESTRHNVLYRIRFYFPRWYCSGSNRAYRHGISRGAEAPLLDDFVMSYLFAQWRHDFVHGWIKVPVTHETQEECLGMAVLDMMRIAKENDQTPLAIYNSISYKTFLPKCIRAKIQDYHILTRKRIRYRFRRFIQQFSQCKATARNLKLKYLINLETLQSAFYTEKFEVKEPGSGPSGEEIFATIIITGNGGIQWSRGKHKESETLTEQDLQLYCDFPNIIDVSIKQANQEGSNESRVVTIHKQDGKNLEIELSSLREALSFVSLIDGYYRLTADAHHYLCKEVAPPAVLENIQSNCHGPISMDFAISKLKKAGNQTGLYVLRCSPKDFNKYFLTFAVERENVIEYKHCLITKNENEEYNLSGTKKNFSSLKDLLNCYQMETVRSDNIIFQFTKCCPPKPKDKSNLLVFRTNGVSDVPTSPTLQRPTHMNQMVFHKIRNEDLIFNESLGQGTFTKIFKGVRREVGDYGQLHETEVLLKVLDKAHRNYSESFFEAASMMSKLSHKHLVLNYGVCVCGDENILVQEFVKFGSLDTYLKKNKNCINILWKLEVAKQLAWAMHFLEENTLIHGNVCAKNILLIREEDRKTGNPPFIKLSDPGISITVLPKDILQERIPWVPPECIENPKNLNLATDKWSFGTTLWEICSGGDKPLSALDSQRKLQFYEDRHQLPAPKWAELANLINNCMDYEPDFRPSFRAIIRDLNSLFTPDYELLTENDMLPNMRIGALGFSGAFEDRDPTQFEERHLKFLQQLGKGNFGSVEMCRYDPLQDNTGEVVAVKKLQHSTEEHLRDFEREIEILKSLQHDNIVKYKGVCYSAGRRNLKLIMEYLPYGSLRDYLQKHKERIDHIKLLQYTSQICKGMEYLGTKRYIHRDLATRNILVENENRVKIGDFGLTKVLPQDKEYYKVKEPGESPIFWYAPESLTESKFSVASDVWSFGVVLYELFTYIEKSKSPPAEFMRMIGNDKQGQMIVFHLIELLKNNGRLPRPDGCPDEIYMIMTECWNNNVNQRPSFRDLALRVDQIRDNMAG
Sequence of Casein kinase I isoform gamma-3 (Homo sapiens) (Q9Y6M4 whole entry, looked up, canonical isoform): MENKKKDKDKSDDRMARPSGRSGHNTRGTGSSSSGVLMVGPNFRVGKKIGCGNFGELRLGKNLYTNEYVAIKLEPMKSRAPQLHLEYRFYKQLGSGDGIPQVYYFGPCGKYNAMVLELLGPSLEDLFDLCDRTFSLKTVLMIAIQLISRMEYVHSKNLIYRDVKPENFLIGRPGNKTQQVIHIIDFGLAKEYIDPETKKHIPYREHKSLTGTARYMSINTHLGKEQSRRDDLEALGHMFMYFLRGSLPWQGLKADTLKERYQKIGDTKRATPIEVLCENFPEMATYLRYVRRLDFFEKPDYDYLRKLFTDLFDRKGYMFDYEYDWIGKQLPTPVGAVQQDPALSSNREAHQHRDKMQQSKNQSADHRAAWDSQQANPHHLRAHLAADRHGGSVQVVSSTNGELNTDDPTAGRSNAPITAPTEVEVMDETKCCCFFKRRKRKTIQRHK

residual activity [1] [%]	residual activity [2] [%]	residual activity [3] [%]	residual activity [4] [%]	residual activity [5] [%]	residual activity [6] [%]	residual activity [7] [%]	residual activity [8] [%]	residual activity [9] [%]	SMILES
101	87	41	95	19	95	94	102	67	COc1cc2c(Oc3ccc(-c4nc5ccccc5s4)cc3)ncnc2cc1OCCCN1CCCC1
107	120	28	94	10	96	99	112	41	COc1cc2c(Oc3ccc(-c4nc5ccccc5s4)cc3)ncnc2cc1OCCCN1CCN(C)CC1
105	105	26	100	26	97	106	106	42	COc1cc2c(Oc3ccc(-c4nc5ccccc5s4)cc3F)ncnc2cc1OCCCN1CCN(C)CC1
